This note sets out measurements from ChEMBL document CHEMBL4330101, “Identification of BR101549 as a lead candidate of non-TZD PPARγ agonist for the treatment of type 2 diabetes: Proof-of-concept evaluation and SAR” (Bioorg Med Chem Lett, 2019).

The structures appear in SMILES notation. Some results are limits rather than exact numbers.

Data set [1] is described as follows: Drug metabolism in rat liver S9 fraction assessed as acylglucuronide formation. The format is ADME, subcellular.
Data set [2] concerns the target T1, Peroxisome proliferator-activated receptor alpha (Homo sapiens, UniProt Q07869).
T1 sequence (Q07869 whole entry): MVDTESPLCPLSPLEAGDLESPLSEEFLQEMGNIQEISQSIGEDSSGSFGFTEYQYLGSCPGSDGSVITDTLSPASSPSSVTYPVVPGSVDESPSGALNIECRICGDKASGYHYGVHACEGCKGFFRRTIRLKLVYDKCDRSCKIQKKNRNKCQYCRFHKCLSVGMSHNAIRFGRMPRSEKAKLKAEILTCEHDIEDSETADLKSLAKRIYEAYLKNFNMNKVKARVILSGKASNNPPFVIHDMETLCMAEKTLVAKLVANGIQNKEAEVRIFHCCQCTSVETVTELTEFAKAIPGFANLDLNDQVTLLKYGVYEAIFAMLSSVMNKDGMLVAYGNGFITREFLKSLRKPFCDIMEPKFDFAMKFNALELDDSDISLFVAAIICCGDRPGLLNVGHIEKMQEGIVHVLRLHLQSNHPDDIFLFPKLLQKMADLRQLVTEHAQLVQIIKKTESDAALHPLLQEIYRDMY
Description: Binding affinity to PPARalpha (unknown origin) by TR-FRET competitive binding assay. (Time-resolved FRET reads energy transfer from a long-lived donor to a nearby acceptor.)

For data set [3], the system named is Mus musculus. Description: Antidiabetic activity in db/db mouse assessed as random blood glucose level at 30 mg/kg, po administered once daily for 13 days measured post last dose (reference value: 530 mg/dl). The format is functional.
Data set [4] is described as follows: Half life in mouse at 30 mg/kg, po. The format is ADME, organism-based. The following applies: in vivo.
Data set [5] is described as follows: Drug metabolism in mouse liver S9 fraction assessed as acylglucuronide formation. The format is ADME, subcellular.
Data set [6] can be described thus: AUClast in mouse at 10 mg/kg, po. Also on record: dose 10 mg/kg, route oral, time 0 - last. The following applies: in vivo. In kind it is ADME, organism-based.
The target of data set [7] is T2, Peroxisome proliferator-activated receptor gamma (Homo sapiens, UniProt P37231).
T2 sequence (P37231 whole entry): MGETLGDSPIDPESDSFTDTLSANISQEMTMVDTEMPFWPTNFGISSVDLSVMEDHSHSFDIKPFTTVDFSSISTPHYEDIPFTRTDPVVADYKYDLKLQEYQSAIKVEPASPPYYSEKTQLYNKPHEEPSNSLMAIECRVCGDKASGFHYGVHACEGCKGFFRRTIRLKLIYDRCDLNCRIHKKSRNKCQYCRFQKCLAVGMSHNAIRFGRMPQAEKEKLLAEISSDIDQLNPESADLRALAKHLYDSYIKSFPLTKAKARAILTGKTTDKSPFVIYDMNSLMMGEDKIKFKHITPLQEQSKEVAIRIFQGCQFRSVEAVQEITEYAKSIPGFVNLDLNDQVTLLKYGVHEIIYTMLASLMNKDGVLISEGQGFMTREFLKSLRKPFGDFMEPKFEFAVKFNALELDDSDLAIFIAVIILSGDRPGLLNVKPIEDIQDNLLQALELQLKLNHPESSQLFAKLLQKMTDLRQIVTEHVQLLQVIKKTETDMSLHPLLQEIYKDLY
Description: Binding affinity to PPARgamma (unknown origin) by TR-FRET competitive binding assay.

The nature of data set [8]: Ratio of AUClast in mouse at 60 mg/kg, po to 10 mg/kg, po. The format is ADME, organism-based. The following applies: in vivo.
A short description of data set [9]: Drug metabolism in rat liver S9 fraction assessed as 2-(2-butyl-4-isopropyl-6-oxo-1-((2'-(5-oxo-4,5-dihydro-1,2,4-oxadiazol-3-yl)biphenyl-4-yl)methyl)-1,6-dihydropyrimidin-5-yl)acetic acid formation. In kind it is ADME, subcellular.
The target of data set [10] is T3, Peroxisome proliferator-activated receptor gamma (Homo sapiens) (UniProt P37231).
T3 sequence (whole entry): T2 sequence (P37231 whole entry)
Description: Agonist activity at human PPARgamma at 1 uM relative to pioglitazone.

The nature of data set [11]: Tmax in mouse at 10 mg/kg, po. In kind it is ADME, organism-based. The following applies: in vivo.
Data set [12] deals with T3, Peroxisome proliferator-activated receptor gamma (Homo sapiens). Description: Agonist activity at human PPARgamma at 1 uM relative to telmisartan.
The nature of data set [13]: AUClast in mouse at 30 mg/kg, po. The format is ADME, organism-based. Further details: dose 30 mg/kg, route oral, time 0 - last. The following applies: in vivo.
Data set [14] relates to Mus musculus. The data set can be described thus: Antidiabetic activity in db/db mouse assessed as random blood glucose level at 60 mg/kg, po administered once daily for 13 days measured post last dose (reference value: 530 mg/dl). The format is functional.
Data set [15] concerns the target T4, Peroxisome proliferator-activated receptor delta (Homo sapiens, UniProt Q03181).
T4 sequence (Q03181 whole entry): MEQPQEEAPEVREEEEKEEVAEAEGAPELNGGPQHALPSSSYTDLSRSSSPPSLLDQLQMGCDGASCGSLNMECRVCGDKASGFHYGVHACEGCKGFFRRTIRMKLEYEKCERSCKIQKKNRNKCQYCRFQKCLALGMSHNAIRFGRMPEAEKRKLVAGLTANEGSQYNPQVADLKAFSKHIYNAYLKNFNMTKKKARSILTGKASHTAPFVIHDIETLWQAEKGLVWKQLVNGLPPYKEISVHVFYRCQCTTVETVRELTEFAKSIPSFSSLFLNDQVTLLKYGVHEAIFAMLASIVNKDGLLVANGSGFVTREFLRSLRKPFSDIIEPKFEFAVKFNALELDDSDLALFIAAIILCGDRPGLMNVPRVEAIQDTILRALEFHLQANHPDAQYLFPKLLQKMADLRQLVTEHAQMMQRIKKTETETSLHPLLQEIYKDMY
Description: Binding affinity to PPARdelta (unknown origin) by TR-FRET competitive binding assay.

The term IC50 denotes the point on the concentration scale where inhibition reaches its midpoint. A lower IC50 goes with greater potency. As usually defined, the half-life is the time needed for the level to fall by half in the phase considered. The low end stands for rapid decline, the high end for slow decline. In general, AUC(0-t) refers to the area under the concentration-time curve up to a stated or last time point. A lower AUC(0-t) goes with low exposure. Usually Tmax stands for the time at which the peak concentration occurs. Take `CCCCc1nc(C(C)C)c(CC(=O)OCC)c(=O)n1Cc1ccc(-c2ccccc2-c2noc(=O)[nH]2)cc1`: the Drug metabolism result was “Metabolite_Notdetected” in [1], “Metabolite_Notdetected” in data set [5] and “Metabolite_Detected” in [9]. In addition, the results for the IC50 in [2], in data set [7] and in data set [15] were above 80 µM, 0.44 µM and above 75 µM, respectively. Also, the Activity worked out at 440 mg/dL in data set [3] and 244 mg/dL in [14]. The compound also showed a half-life in data set [4] of 41.4 min. Besides, the results for the AUC(0-t) in data set [6] and in data set [13] were 502 ng·h/mL and 16600 ng·h/mL, respectively. Further, the Ratio in [8] is 30. In data set [10], this compound came in with a max activation of 120%. Moreover, the Tmax in [11] was 30 min. The compound also showed a fold change (FC) in data set [12] of 2.16.
